Assay [1] deals with Matrix metalloproteinase-9 (Homo sapiens, UniProt P14780). Put plainly: MMP Inhibition Assay. The method, then:
(§1) This assay was performed as outlined in the Anaspec MMP assay kit. The fluorescence peptide cleavage assay was performed in a 96-well plate in which each reaction mixture contained 5-FAM / QXL520 and activated MMP-2 or MMP-9 in assay buffer, and the screening compounds.

Assay [2] concerns the target 72 kDa type IV collagenase (Homo sapiens, UniProt P08253). Kind of assay: MMP Inhibition Assay. The method, then: as §1

pIC50: −log10 of the molar value.

Sequence of 72 kDa type IV collagenase (P08253 whole entry): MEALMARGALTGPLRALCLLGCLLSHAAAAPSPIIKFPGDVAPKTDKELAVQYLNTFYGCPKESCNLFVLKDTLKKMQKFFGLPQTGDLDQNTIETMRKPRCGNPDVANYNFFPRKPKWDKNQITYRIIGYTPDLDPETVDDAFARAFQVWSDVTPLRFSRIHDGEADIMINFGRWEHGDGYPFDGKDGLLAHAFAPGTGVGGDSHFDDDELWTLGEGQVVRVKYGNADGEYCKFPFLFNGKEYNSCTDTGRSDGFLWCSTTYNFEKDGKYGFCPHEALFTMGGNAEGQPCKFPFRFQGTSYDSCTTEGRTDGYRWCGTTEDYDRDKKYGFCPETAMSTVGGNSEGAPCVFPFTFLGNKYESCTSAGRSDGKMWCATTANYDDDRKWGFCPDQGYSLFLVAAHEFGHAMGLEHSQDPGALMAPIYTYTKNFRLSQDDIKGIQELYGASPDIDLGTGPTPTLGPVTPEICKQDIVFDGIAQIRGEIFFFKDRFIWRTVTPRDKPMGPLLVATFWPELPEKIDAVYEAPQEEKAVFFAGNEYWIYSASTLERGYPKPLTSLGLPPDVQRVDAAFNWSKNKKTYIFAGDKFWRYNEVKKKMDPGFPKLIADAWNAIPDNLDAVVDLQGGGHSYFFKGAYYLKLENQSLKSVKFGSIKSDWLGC
Sequence of Matrix metalloproteinase-9 (P14780 whole entry): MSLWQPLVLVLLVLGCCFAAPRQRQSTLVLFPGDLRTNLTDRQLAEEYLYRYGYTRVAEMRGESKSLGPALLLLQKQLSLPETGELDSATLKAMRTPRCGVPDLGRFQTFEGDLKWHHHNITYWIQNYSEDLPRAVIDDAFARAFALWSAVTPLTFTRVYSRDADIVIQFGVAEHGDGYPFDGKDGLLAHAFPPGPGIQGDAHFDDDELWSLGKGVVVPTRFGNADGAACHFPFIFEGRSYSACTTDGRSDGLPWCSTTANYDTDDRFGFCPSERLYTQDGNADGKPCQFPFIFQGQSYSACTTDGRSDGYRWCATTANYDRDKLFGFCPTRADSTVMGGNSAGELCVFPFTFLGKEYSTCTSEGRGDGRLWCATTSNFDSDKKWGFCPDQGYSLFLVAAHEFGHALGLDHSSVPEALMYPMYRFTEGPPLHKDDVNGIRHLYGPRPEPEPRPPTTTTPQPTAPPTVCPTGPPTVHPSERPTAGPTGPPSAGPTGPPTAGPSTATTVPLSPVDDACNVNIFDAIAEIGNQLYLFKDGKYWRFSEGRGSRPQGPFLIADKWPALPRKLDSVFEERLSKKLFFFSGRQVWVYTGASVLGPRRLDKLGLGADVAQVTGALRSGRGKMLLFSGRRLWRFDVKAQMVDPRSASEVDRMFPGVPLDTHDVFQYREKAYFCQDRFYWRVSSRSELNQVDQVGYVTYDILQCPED

As to `O=C(O)CN1C(=O)/C(=C/c2cc(-c3ccccc3)on2)SC1=S` [2-[(5Z)-4-oxo-5-[(5-phenyl-1,2-oxazol-3-yl)methylidene]-2-sulfanylidene-1,3-thiazolidin-3-yl]acetic acid], the results for the pIC50 in assay [1] and in assay [2] were 4.30 and less than 4.00, respectively.
Take `Cc1nc(/C=C2\SC(=S)N(CC(=O)O)C2=O)c(C)o1` [2-[(5Z)-5-[(2,5-dimethyl-1,3-oxazol-4-yl)methylidene]-4-oxo-2-sulfanylidene-1,3-thiazolidin-3-yl]acetic acid]: the negative-log IC50 (pIC50) in assay [1] and in assay [2] was less than 4.00 throughout.
As for `Cc1nc(-c2ccccc2)c(/C=C2\SC(=S)N(CC(=O)O)C2=O)s1` [2-[(5Z)-5-[(2-methyl-4-phenyl-1,3-thiazol-5-yl)methylidene]-4-oxo-2-sulfanylidene-1,3-thiazolidin-3-yl]acetic acid], the pIC50 in assay [1] and in assay [2] was less than 4.00 throughout.
Take `CC(C)(C)OC(=O)N1CCC(c2nc(/C=C3\SC(=S)N(CC(=O)O)C3=O)cs2)CC1` [2-[(5Z)-5-[(2-{1-[(tert-butoxy)carbonyl]piperidin-4-yl}-1,3-thiazol-4-yl)methylidene]-4-oxo-2-sulfanylidene-1,3-thiazolidin-3-yl]acetic acid]: the pIC50 in assay [1] and in assay [2] was less than 4.00 each time.
Turning to `O=C(O)CN1C(=O)/C(=C/c2c[nH]c3ccc(Br)cc23)SC1=S` [2-[(5Z)-5-[(5-bromo-1H-indol-3-yl)methylidene]-4-oxo-2-sulfanylidene-1,3-thiazolidin-3-yl]acetic acid], the pIC50 (commonly the IC50 on a negative log10 scale, so that one unit is a factor of ten) in assay [1] is less than 4.00.
Turning to `O=C(O)CN1C(=O)/C(=C/c2cc(-c3ccc(Br)cc3)on2)SC1=S` [2-[(5Z)-5-{[5-(4-bromophenyl)-1,2-oxazol-3-yl]methylidene}-4-oxo-2-sulfanylidene-1,3-thiazolidin-3-yl]acetic acid], the pIC50 in assay [1] is 4.56; in assay [2], less than 4.00.
On the same counts, the results for `O=C(O)CN1C(=O)/C(=C/c2cc(-c3ccc(Cl)cc3)on2)SC1=S` [2-[(5Z)-5-{[5-(4-chlorophenyl)-1,2-oxazol-3-yl]methylidene}-4-oxo-2-sulfanylidene-1,3-thiazolidin-3-yl]acetic acid] are less than 4.00 and 4.72.
On the same counts, the results for `O=C(O)CN1C(=O)/C(=C/c2cc(-c3ccc(F)cc3)on2)SC1=S` [2-[(5Z)-5-{[5-(4-fluorophenyl)-1,2-oxazol-3-yl]methylidene}-4-oxo-2-sulfanylidene-1,3-thiazolidin-3-yl]acetic acid] are less than 4.00 and 5.00.
Consider `COc1ccc(-c2cc(/C=C3\SC(=S)N(CC(=O)O)C3=O)no2)cc1` [2-[(5Z)-5-{[5-(4-methoxyphenyl)-1,2-oxazol-3-yl]methylidene}-4-oxo-2-sulfanylidene-1,3-thiazolidin-3-yl]acetic acid], for which the figures for the negative logarithm of the IC50 (pIC50) in assay [1] and in assay [2] were less than 4.00 and 5.18, respectively.
With `Cc1ccc(-c2cc(/C=C3\SC(=S)N(CC(=O)O)C3=O)no2)cc1` [2-[(5Z)-5-{[5-(4-methylphenyl)-1,2-oxazol-3-yl]methylidene}-4-oxo-2-sulfanylidene-1,3-thiazolidin-3-yl]acetic acid], the values for the pIC50 in assay [1] and in assay [2] were less than 4.00 and greater than 5.00, respectively.
In turn, `O=C(O)CN1C(=O)/C(=C/c2cc(-c3ccco3)on2)SC1=S` [2-[(5Z)-5-{[5-(furan-2-yl)-1,2-oxazol-3-yl]methylidene}-4-oxo-2-sulfanylidene-1,3-thiazolidin-3-yl]acetic acid] gave a pIC50 in assay [1] of less than 4.00.

Values taken from BindingDB's records for doi:10.1111/j.1747-0285.2007.00617.x (Burnham Institute For Medical Research, 2008).
